{
  "source": "patent US20190076456A1",
  "about": "“COMPOSITIONS AND METHODS FOR LIVER DISEASES” (priority 2017, published 2019)",
  "key": {"alcohol hangover": {"system": "alcohol hangover", "experiment": "Nasal spray administration to a human subject with alcohol hangover", "type": "in vivo", "conditions": "50 mg NAD+ per administration, three times in a day", "procedure": "A subject, who is […] and suffers from alcohol hangover was administered by nasal spray a composition of invention (with a dosage of 50 mg NAD+ per administration) three times in a day."}, "[1]": {"conditions": "cited from earlier work"}},
  "note": "Like-named read-outs stand apart in the source and are kept apart here.",
  "data": [
    {"smiles": "NC(=O)c1ccc[n+]([C@@H]2O[C@H](COP(=O)([O-])OP(=O)(O)OC[C@H]3O[C@@H](n4cnc5c(N)ncnc54)[C@H](O)[C@@H]3O)[C@@H](O)[C@H]2O)c1", "note": "[NAD+, nicotinamide adenine dinucleotide]", "values": [
      {"measurement": "symptoms of alcohol hangover", "setting": "alcohol hangover", "result": "Significant improvement"},
      {"measurement": "stability of solution", "setting": "[1]; 4° C. and neutral pH", "result": "stable for about a week"},
      {"measurement": "stability of solution", "setting": "[1]; in acids or alkalis", "result": "decompose rapidly"}
    ]}
  ]
}
